The values that follow come from patent US6069150A, “Use of derivatives of tetrahydro-beta-carbolines as antimetastatic agents” (F. Hoffman-La Roche AG, priority 1996, dated 2000).

Where two headings read alike, the source gives them in different places.

As a reminder, the IC50 is the concentration that gives 50% inhibition. As a reminder, the inhibition is the percentage by which the read-out fell short of the control.

Assay [1] deals with T1, MMP8 (human neutrophil collagenase) (Homo sapiens, UniProt P22894).
T1 construct: by means of the catalytic domain of MMP8
T1 sequence (P22894 100-262 limits assumed): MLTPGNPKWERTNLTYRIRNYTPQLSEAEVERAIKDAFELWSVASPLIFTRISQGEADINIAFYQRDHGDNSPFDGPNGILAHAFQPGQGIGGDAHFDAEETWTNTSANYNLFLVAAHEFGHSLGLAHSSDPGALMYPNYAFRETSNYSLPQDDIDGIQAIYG
Briefly: in vitro test of inhibition of MMP8 (human neutrophil collagenase), fluorescent substrate degradation by catalytic domain of MMP8. The format is biochemical. As to conditions: for inhibition at 0.1 µg/mL: conc. 0.1 μg/ml. The source says: The compounds of the present invention have been tested in a pharmacological "in vitro" test of inhibition of MMP8 (human neutrophil collagenase). Said test provides for the determination via fluorescence of the inhibition of the degradation of a fluorescent substrate (DNP-Pro-Leu-Gly-Leu-Trp-Ala-D-Arg-NH2, M1855 Bachem) by means of the catalytic domain of MMP8.
1) DNP-substrate=DNP-Pro-Leu-Gly-Leu-Trp-Ala-D-Arg-NH2 (M1855 Bachem), M.W. 977.1 g/mol, concentration 25 (μM in DMSO; 2) measurement buffer=50 mM TRIS/100 mM NaCl/10 mM CaCl2.2H2 O, adjusted at pH 7.6 with hydrochloric acid. 3) Enzyme=catalytic domain of MMP8 (92 Kda), concentration 0.055 mg/ml in TRIS buffer. Substrate and enzyme are maintained at 0° C. with ice bath.
Total volume=1 ml of solution kept under stirring in a cuvette.
0.01 ml of inhibitor (10 (g/ml).
It is measured the fluorescence at 346 nm both of the control solution (without inhibitor) and of the solution containing the inhibitor. The inhibition of the catalytic activity of MMP8 results in the decrease in the DNP-substrate lysis, with related decrease in the fluorescence of the solution.
The percentage of inhibition is expressed by the following formula:
% Inhibition=100-(rel. unit/timewith inhibitor /rel.
By repeating the experiment at different concentrations of inhibitor it is possible to determine the IC50 value.

The test system of assay [2] is human fibrosarcoma HT1080 cells. Briefly: test of chemoinvasion (HT1080 cells through Type IV collagen coated Transwell filters). It counts as cell-based. The procedure: The compounds of the present invention have also shown activity in an "[…]" test of chemoinvasion. In the test of chemoinvasion the Costar Transwell chambers for cell culture (diameter: 6.5 mm; pore size: 8 μm) are coated with 100 μl of Type IV collagen (diluted solution 50 μg/ml, then evaporation overnight). With the same procedure the chambers are coated with a second layer of Type IV collagen (100 μl of solution at concentration 50 μg/ml). Before use, the chambers are rinsed twice with sterile water and incubated for about 1 hour at 37° C. in a serum-free medium (DMEM).
The human fibrosarcoma HT1080 cells are harvested by trypsin-EDTA treatment, washed with DMEM+10% FCS and incubated for at least 30 minutes at 37° C. in the same medium. The cells are then washed with serum-free DMEM and resuspended in serum-free DMEM added with 0.1% BSA (fraction V), counted and diluted to obtain a final density of 3×10^5 cell/ml. […]
Incubated filters are then washed with PBS, the cells are fixed 15 min in 4% paraformaldehyde, permeabilized in methanol (10 minutes, -20° C.) and stained with May-Grunwald-Giemsa. Cells which adhere to the top of the filters are removed with a cotton swab, filters are detached from the bottom of the chambers and analyzed with microscope to determine the number of cells on the lower side of the filters. […]

Setting [3] is: MMP8 catalytic domain, DNP-substrate, fluorescence at 346 nm, read-out: IC50 (converted).

`O=C(O)C1Cc2c([nH]c3ccccc23)CN1` (centres unmarked) [1,2,3,4-tetrahydronorharman-3-carboxylic acid]: in assay [1] (setting [3]), the 50% inhibitory concentration (IC50) is 0.324 µM. This compound also had an inhibition at 0.1 µg/mL in assay [1] of 100%.

Take `COc1ccc2[nH]c3c(c2c1)CCNC3C(=O)O` (centres unmarked) [6-methoxy-1,2,3,4-tetrahydronorharman-1-carboxylic acid]: the IC50 in assay [2] (HT-1080, 24 h + 24 h) was 0.2 µM; in assay [1] (setting [3]), 0.203 µM. Also, the inhibition at 0.1 µM in assay [2] (HT-1080, conc. 10^-7 M, 24 h + 24 h) turned out to be 56.5%. For the same compound, the inhibition at 10 µg/mL in assay [1] (conc. 10 μg/ml) stood at 100%.

On to `COc1ccc2[nH]c3c(c2c1)CCNC3` [6-methoxy-1,2,3,4-tetrahydronorharmane], for which, in assay [1], the IC50 is 0.297 µM and the inhibition at 0.1 µg/mL amounted to 100%.
